Measurements published in patent US8440637B2, “Combination treatment for the treatment of hepatitis C virus infection” (priority 2007, dated 2013).
l = locked nucleic acid (LNA); d = 2'-deoxy (DNA)

Experiments:
miR-122 [1] = assay: Total plasma cholesterol in hypercholesterolemic and normal mice, long-term treatment; assay type: in vivo, mouse; conditions: 5 mg/kg i.p. twice weekly
Description: C57BL/6J female mice were fed on high fat diet for 13 weeks before the initiation of the SEQ ID NO: 63 treatment. […] Both hypercholesterolemic and normal mice were treated i.p. twice weekly with 5 mg/kg SEQ ID NO: 63 and the corresponding mismatch control for a study period of 5½ weeks. Blood samples were collected weekly and total plasma cholesterol was measured during the entire course of the study. Upon sacrificing the mice, liver and blood samples were prepared for total RNA extraction, miRNA and mRNA quantification, assessment of the serum transaminase levels, and liver histology.
C57BL/6J female mice (Taconic M&B Laboratory Animals, Ejby, Denmark) were used. All substances were formulated in physiological saline (0.9% NaCl) to final concentration allowing the mice to receive an intraperitoneal injection volume of 10 ml/kg.
In the diet induced obesity study, the mice received a high fat (60EN %) diet (D12492, Research Diets) for 13 weeks to increase their blood cholesterol level before the dosing started. The dose regimen was stretched out to 5½ weeks of 5 mg/kg LNA-antimiR™ twice weekly. Blood plasma was collected once a week during the entire dosing period. After completion of the experiment the mice were sacrificed and RNA extracted from the livers for further analysis. Serum was also collected for analysis of liver enzymes.
Immediately before sacrifice retro-orbital sinus blood was collected in EDTA-coated tubes followed by isolation of the plasma fraction. Total plasma cholesterol was analysed using ABX Pentra Cholesterol CP (Horiba Group, Horiba ABX Diagnostics) according to the manufacturer's instructions.

miR-122a = miR-122a level in transfected Huh-7 cells by miR-122a specific qRT-PCR; assay type: cell-based, human; conditions: transfected at 1 and 100 nM, 24 hours after transfection
Description: The miR-122a expressing cell line Huh-7 was transfected with LNA anti-miR5 at 1 and 100 nM concentrations according to optimized lipofectamine 2000 (LF2000, Invitrogen) protocol (as follows).
Huh-7 cells were cultivated in Eagles MEM with 10% FBS, 2 mM Glutamax I, 1× non-essential amino acids, Gentamicin 25 μg/ml. The cells were seeded in 6-well plates (300000 cells per well), in a total vol. of 2.5 ml the day before transfection. At the day of transfection a solution containing LF2000 diluted in Optimem (Invitrogen) was prepared (1.2 ml optimem+3.75 μl LF2000 per well, final 2.5 μg LF2000/ml, final tot vol 1.5 ml).
LNA Oligonucleotides (LNA anti-miRs) were also diluted in optimem. 285 μl optimem+15 μl LNA oligonucleotide (10 μM oligonucleotide stock for final concentration 100 nM and 0.1 μM for final concentration 1 nM) Cells were washed once in optimem then the 1.2 ml optimem/LF2000 mix were added to each well. Cells were incubated 7 min at room temperature in the LF2000 mix where after the 300 μl oligonucleotide optimem solution was added. […]
miR-122a levels in the RNA samples were assessed on an ABI 7500 Fast real-time PCR instrument (Applied Biosystems, USA) using a miR-122a specific qRT-PCR kit, mirVana (Ambion, USA) and miR-122a primers (Ambion, USA). […]

miR-122 [2] = assay: Genome-wide liver expression profiling, Affymetrix Mouse Genome 430 2.0 arrays; assay type: in vivo
Description: We carried out genome-wide expression profiling of total RNA samples from saline LNA-antimiR-122 treated and LNA mismatch control treated mice livers 24 hours after the last dose using Affymetrix Mouse Genome 430 2.0 arrays. […] We subsequently examined the 3′ untranslated regions (UTRs) of the differentially expressed mRNAs for the presence of the 6 nt sequence CACTCC, corresponding to the reverse complement of the nucleotide 2-7 seed region in mature miR-122.
Expression profiles of livers of saline and LNA-antimiR treated mice were compared. NMRI female mice were treated with 25 mg/kg/day of LNA-antimiR along with saline control for three consecutive days and sacrificed 24 h, 1, 2 or 3 weeks after last dose. Additionally, expression profiles of livers of mice treated with the mismatch LNA control oligonucleotide 24 h after last dose were obtained. Three mice from each group were analyzed, yielding a total of […] expression profiles. RNA quality and concentration was measured using an Agilent 2100 Bioanalyzer and Nanodrop ND-1000, respectively. Total RNA was processed following the GeneChip Expression 3′-Amplification Reagents One-cycle cDNA synthesis kit instructions (Affymetrix Inc, Santa Clara, Calif., USA) to produce double-stranded cDNA. This was used as a template to generate biotin-labeled cRNA following manufacturer's specifications. Fifteen micrograms of biotin-labeled cRNA was fragmented to strands between 35 and 200 bases in length, of which 10 micrograms were hybridised onto Affymetrix Mouse Genome 430 2.0 arrays overnight in the GeneChip Hybridisation oven 6400 using standard procedures. The arrays were washed and stained in a GeneChip Fluidics Station 450. Scanning was carried out using the GeneChip Scanner 3000 and image analysis was performed using GeneChip Operating Software. Normalization and statistical analysis were done using the LIMMA software package for the R programming environment27. Probes reported as absent by GCOS software in all hybridizations were removed from the dataset. Additionally, an intensity filter was applied to the dataset to remove probes displaying background-corrected intensities below 16. Data were normalized using quantile normalization28. Differential expression was assessed using a linear model method. P values were adjusted for multiple testing using the Benjamini and Hochberg. Tests were considered to be significant if the adjusted p values were p<0.05. Clustering and visualization of Affymetrix array data were done using the MultiExperiment Viewer software29.

[3] = liver, 24 hours after the last dose

5′-CcAttGTcaCaCtCC-3′ (antisense CCATTGTCACACTCC; sugars from the 5' end ldlddllddldldll, backbone and methylation of C not given here) [SEQ ID NO: 63]
reduction of total plasma cholesterol compared to saline control (miR-122 [1]; hypercholesterolemic mice, after 10 days, sustained during the study): about 30%
effect on total plasma cholesterol (in words) (miR-122 [1]; normal diet mice): not as pronounced
inhibition of miR-122a (in words) (miR-122a): more efficient in inhibiting miR-122a at 1 nM

5′-ccAttGtcAcaCtcCa-3′ (antisense CCATTGTCACACTCCA; sugars from the 5' end ddlddlddlddlddld, backbone and methylation of C not given here) [SEQ ID NO: 61]
differentially expressed mRNAs (miR-122 [2]; 24 hours after the last LNA dose): 509
differentially expressed genes (miR-122 [2]; after one week): 251
transcripts downregulated (miR-122 [2]; [3]): 54
transcripts upregulated compared to saline and LNA mismatch controls (miR-122 [2]; [3]): 455
differentially expressed genes (miR-122 [2]; three weeks post treatment): 18
